Experimental data from patent publication US20240216372A1, “THERAPEUTICS FOR KELOIDS AND OTHER FIBROTIC DISORDERS” (Florida State University Research Foundation, Inc., priority 2022, published 2024).

How the values were obtained:
[1] = system: keloid dermal fibroblasts; test: keloid fibroblast proliferation; format: cell-based, human; details: for effect on keloid fibroblast proliferation / sensitivity of keloid dermal fibroblasts to the drug (effective concentration range): patient-derived keloid dermal fibroblasts; for sensitivity of keloid fibroblasts compared to normal HDFs: keloid fibroblasts versus normal HDFs
[2] = system: Insulin-like Growth Factor 2 (IGF2) signaling; details: general statement, no test described; cited from earlier work
[3] = system: normal primary human dermal fibroblasts (HDFs); test: normal HDF proliferation; format: cell-based

SMILES | effect on keloid fibroblast proliferation [1] | sensitivity of keloid fibroblasts compared to normal HDFs [1] | sensitivity of keloid dermal fibroblasts to the drug (effective concentration range) [1] | effective range as inhibitor of IGF2 signaling [2] | sensitivity / proliferation of normal HDFs [3]
COc1ccc(CCN(C)CCCC(C#N)(c2ccc(OC)c(OC)c2)C(C)C)cc1OC (stereo not drawn) [Verapamil] | inhibits the proliferation of keloid fibroblasts | – | – | – | –
COc1cc(/C=C/C(=O)CC(=O)/C=C/c2ccc(O)c(OC)c2)ccc1O [Curcumin] | – | much more sensitive | – | – | –
CNC(=O)Nc1ccc2c(c1)CC[C@@]21OC(=O)N(CC(=O)N(Cc2ccc(F)cc2)[C@@H](C)C(F)(F)F)C1=O [A485] | – | much more sensitive | – | – | –
CN(C)c1ccc2c(c1)OC(N)=C(C#N)C2c1cccc(C(F)(F)F)c1 (stereo not drawn) [Chromeceptin] | blocks keloid fibroblast proliferation | – | sensitive | low nanomolar range | –
O=C(O)C(=O)c1cn(Cc2ccccc2)c2ccc(-c3ccc(OC(F)(F)F)cc3)cc12 [Tiplaxtinin] | – | preferentially blocks keloid fibroblast proliferation over normal HDF proliferation | low micromolar range | – | not significantly sensitive
